This is an account of results in US20210255184A1, “Biosensor Device and Methods” (The New Zealand Institute for Plant and Food Research …, priority 2018, published 2021).

This assay addresses T1, Or10a (Drosophila melanogaster, UniProt Q9VYZ1).
T1 construct: his-tag; made in house; host or cells: baculovirus-infected Sf9 cells
T1 sequence (Q9VYZ1 1-406): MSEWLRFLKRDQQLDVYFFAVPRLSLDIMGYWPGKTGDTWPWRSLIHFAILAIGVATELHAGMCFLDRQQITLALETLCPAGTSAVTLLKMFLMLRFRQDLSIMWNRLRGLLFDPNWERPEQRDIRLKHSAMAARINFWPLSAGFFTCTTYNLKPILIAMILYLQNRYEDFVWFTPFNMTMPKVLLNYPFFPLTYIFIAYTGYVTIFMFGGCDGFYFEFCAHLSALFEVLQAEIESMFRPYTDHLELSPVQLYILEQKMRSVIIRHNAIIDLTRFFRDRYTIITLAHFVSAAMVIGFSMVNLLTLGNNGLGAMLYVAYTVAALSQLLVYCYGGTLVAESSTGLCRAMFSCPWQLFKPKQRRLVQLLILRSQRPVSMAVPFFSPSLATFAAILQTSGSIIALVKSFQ
The assay can be described thus: EIS sensor, Or10a liposomes on gold electrode. Type of assay: biochemical. As for the experimental part: Prior to their use, liposomes were defrosted on ice and then destabilized by incubating with 0.2% CHAPS for 15 min at room temperature. Then 200 μg of purified odorant receptor^28 was added to 1 mg of liposomes and rotated at 10 rpm for 1 h at room temperature. Excess detergent was removed by four additions of 25 mg of Bio-Beads SM-2 (Bio-Rad, USA) and incubation at 4° C. for 30 min, 2 h, overnight and a further 2 h respectively. The Bio-Beads were removed after each incubation period. The OrX or OrX/Orco integrated liposomes were pelleted by centrifugation at 100,000 g for 1 h, and were resuspended in 500 μL of rehydration buffer. Integration of OrXs and Orco into liposomes was assessed by density gradient ultracentrifugation (DGU) using Accudenz (Accurate Chemical & Scientific Corporation, USA). The integrated liposomes were brought to 40% Accudenz by the addition of an equal volume of 80% Accudenz solution, placed at the bottom of an ultra-centrifugation tube, and overlaid with 30% Accudenz solution, and DGU buffer (25 mM HEPES pH 7.5, 100 mM NaCl, 10% glycerol). The sample was then centrifuged at 100,000 g for 4 h at 4° C. Liposomes will float to the top of the gradient after Accudenz DGU due to their low density.
2 mM MHA was prepared by dissolving 1.36 μl of MHA in 5 ml ethanol (AR grade). The cleaned electrodes were immersed into MHA solution and incubated overnight. The next day, all the electrodes were washed with ethanol and deionised water thoroughly in order to remove the unreacted acid. A 2:1 mol:mol ratio of EDC:NHS (100 mM EDC, 50 mM NHS) was prepared in 2 ml PBS (pH=6.5) solution. Then, the electrodes were covered in 100 μl of this solution at 28° C. for an hour to activate the carboxylic (COOH) groups of the MHA.
PBS solution was prepared by immersing one tablet of PBS in 200 ml of milli-Q water (according to manufacturers instructions) and filtered using 0.2-μm syringe filter. The pH of the prepared buffer solution was measured with a pH meter. OrX liposomes or OrX/Orco liposomes were diluted 100 fold in PBS buffer solution (pH=7.4) and the COOH-activated electrodes were incubated in that buffer solution at room temperature for one hour. Then, the electrodes were washed extensively with PBS buffer solution to wash out any unbound liposomes.
PBS (pH=7.4) was used as an electrolyte to conduct electrochemical measurements. PBS buffer was degassed for about 30 minutes prior to electrochemical measurements. Odorant solutions of concentration ranging from 1 aM to 1 μM were prepared by sequential dilution in PBS solution containing 1% DMSO. OR immobilized electrodes were incubated in relevant odorant solution for ˜30 minutes each and washed gently with PBS before EIS measurements.
EIS measurements were done in a 3 electrode cell containing Ag/AgCl (3 M NaCl, 0.209 V vs. SHE) reference electrode, coiled platinum wire as a counter electrode and the gold disk as a working electrode at a fixed voltage of −0.7 using PalmSens potentiostat. Degassed PBS was used as an electrolyte.
EIS measurements were performed on gold electrodes functionalised with OrX liposomes (either Or10a or Or22a), OrX/Orco liposomes, or empty liposomes prior to and after target ligand or control ligand incubation with increasing concentrations (1 aM to 100 μM). Dose response curves were obtained by defining sensor response as −(ΔRp/R^op) versus log[C(Ligand)]. FIG. 4a presents the EIS response in terms of Nyquist plot for the Or10a liposome functionalized sensors when exposed to a solution containing one of the known target ligands of Or10a, methyl salicylate, at various concentrations. […] The dose response curve (FIG. 4b) was obtained by plotting the change in polarization resistance −(ΔRp/R^op) versus log[conc(Ligand)], as the sensor response. Here, Rp is the polarization resistance after Or10a liposome-target interaction and R^op is the polarization resistance before Or10a liposome-target interaction.

Regarding `CCCCCC(=O)OC` [methyl hexanoate], under “EIS dose response”, the “sensor response to control ligand” value is “negligible response”.
As to `COC(=O)c1ccccc1O` [methyl salicylate], the “limit of detection (LOD)” value (EIS dose response, ligand 1 aM to 100 μM) was 0.1 pM. Further, the half-maximal effective concentration (EC50) (as a rule, the concentration giving half of the maximal effect) runs as follows: (Table 1, approximate) roughly 0.1 nM; (Table 3, fitted dose response) 0.0022 nM. Further, under “Table 1, * estimated visually from dose response graph”, the Sensitivity limit was ~10^−10 M*. Moreover, the “Detection Range” value (Table 3) is 10^−13 to 10^−7 M.
